Values of other authors as cited in patent US20080008727A1, “Compositions comprising adapalene dissolved with cyclodextrins” (GALDERMA RESEARCH & DEVELOPMENT, priority 2004, published 2008).

COc1ccc(-c2ccc3cc(C(=O)O)ccc3c2)cc1C12CC3CC(CC(C3)C1)C2 [adapalene, 6-[3-(1-adamantyl)-4-methoxyphenyl]-2-naphthoic acid]
Solubility in water (in words): practically insoluble in water
